Legend:
Format in all cases: physicochemical
[1] = Contact angle by sessile drop method (water); conditions: ambient conditions, trihydrate
Protocol: Contact angles of amoxicillin trihydrate powder samples were measured by the sessile drop method using an Drop Shape Analyzer instrument (FTA 1000, First Ten Angstrom, Virginia, USA). Powder samples were mounted on double sided adhesive tape adhered to a glass slide and excess powder was removed by tapping the slide. A drop of probe liquid (water) was dispersed onto the sample surface and video images were captured by the FTA image analyzer. The contact angle was calculated by the instrument by fitting a mathematical expression to the shape of the drop followed by calculating the slope of the tangent to the drop at the liquid-solid-vapor interface line. The surface tension of ultrapure ELGA laboratory water was measured to be 73±0.5 mN·m^−1 at 25° C. All measurements were performed in air under ambient conditions and an average of four measurements was reported in the below Examples.
(§1) Parameters operated were: • Augar Speed: 5-90 rpm • Primary Air Pressure: 2-8 kg·cm^−2 • Secondary Air Pressure: 4-10 kg·cm^−2 The surface area (in triplicate), average particle size and contact angle (in quadruplicate) were determined as outlined in the General section. The purity of the amoxicillin trihydrate samples was 99.4±0.3% and were void of dichloromethane, isopropanol, pivalic acid and triethyl amine.

[2] = Powder dissolution, USP/NF paddle method with HPLC analysis; conditions: 500 mg in 900 mL water, 37 °C, 75 rpm; for Amoxicillin released in solution Mean: mean of 3; for Amoxicillin released in solution #1: replicate #1; for Amoxicillin released in solution #2: replicate #2; for Amoxicillin released in solution #3: replicate #3
Protocol: Dissolution analysis of amoxicillin trihydrate powder samples was carried out using the USP/NF paddle method at a rotational speed of 75 rpm. Ultrapure ELGA laboratory water (900 mL) was used as dissolution medium. Media were equilibrated to 37.0±0.5° C. prior to dissolution. Amoxicillin trihydrate sample powder (500 mg) was directly added to the dissolution apparatus (Electrolab USP-24, India). Samples were collected at 0, 1, 3, 5, 10, 15, 30, 60 and 90 min, filtered through 0.2 μm filters and analyzed by HPLC. Dissolution profiles were constructed by plotting the percentage amoxicillin released against time.
The HPLC system (Shimadzu Corporation, Kyoto, Japan) comprised of an SCL-10A VP system controller, LC-10AT VP liquid chromatograph, FCV-10AL VP flow control valve, DGU-14A degasser, SIL-10AD VP auto-injector, CTO-10AS VP column oven, SPD-M20A prominence diode array (PDA) detector and data acquisition Class-VP 6.10 software. The HPLC method was adopted from the United States Pharmacopoeia (USP). The method was validated for linearity, precision, accuracy and intra- and inter-day variability. The mobile phase was 50 mM monobasic potassium phosphate:methanol (96:4, v/v, pH 5.0). All analyses were carried out using Lichrospher® 100 RP-18e analytical column (5 μm, Merck KGaA, Darmstadt, Germany) under isocratic conditions at a flow rate of 1.0 mL·min^−1 at 25° C. with 20 μL injection volume. Effluent was monitored at a wavelength of 230 nm. Samples for calibration curve generation were prepared in 50 mM monobasic potassium phosphate:methanol 1:1 (v/v) proportion at a concentration range of 1 to 600 μg·mL^−1.
The three non-micronized (i.e. entries 1-3 of Table 1) and micronized (i.e. entries 4-6 of Table 1) amoxicillin trihydrate samples of Example 1 were subjected to a powder dissolution test (in triplicate) as outlined in the General section.

[3] = Particle size distribution by laser diffraction (Malvern); conditions: trihydrate
Protocol: Particle size distribution values D10, D50, D90 and D100 were determined using laser diffraction applying Malvern equipment. A suitable apparatus for determining D10, D50, D90 and D100 is a Malvern particle sizer 2600 C or a Malvern Zeta Sizer.
as §1

[4] = Specific powder surface area by nitrogen gas sorption (BET); conditions: triplicate, trihydrate
Protocol: Specific powder surface area was determined using nitrogen gas sorption (Smartsorb, Smart Instruments, Mumbai, India). Prior to measurements, samples were regenerated by degassing to remove moisture and contamination. The regenerated sample was dipped in liquid nitrogen and the quantity of the adsorbed gas was measured using a thermal conductivity detector and subsequently integrated using an electronic circuit in terms of counts. The instrument was calibrated by injecting a known quantity of nitrogen. The measured parameters were subsequently used to calculate the surface area of the sample by employing the adsorption theories of Brunauer, Emmett and Teller (BET).
as §1

## CC1(C)S[C@@H]2[C@H](NC(=O)[C@H](N)c3ccc(O)cc3)C(=O)N2[C@H]1C(=O)O.O.O.O [entry 1, amoxicillin trihydrate]
[1]
  Contact Angle Mean ± SD (n = 4): 75.50 ± 2.95
[2]; 0 min
  Amoxicillin released in solution Mean: 0%
  Amoxicillin released in solution #1: 0%
  Amoxicillin released in solution #2: 0%
  Amoxicillin released in solution #3: 0%
[2]; 1 min, trihydrate
  Amoxicillin released in solution Mean: 85.98%
  Amoxicillin released in solution #1: 84.65%
  Amoxicillin released in solution #2: 86.65%
  Amoxicillin released in solution #3: 86.65%
[2]; 3 min, trihydrate
  Amoxicillin released in solution Mean: 99.25%
  Amoxicillin released in solution #1: 99.74%
  Amoxicillin released in solution #2: 99.01%
  Amoxicillin released in solution #3: 99.01%
[2]; 5 min, trihydrate
  Amoxicillin released in solution Mean: 99.51%
  Amoxicillin released in solution #1: 99.44%
  Amoxicillin released in solution #2: 99.54%
  Amoxicillin released in solution #3: 99.54%
[2]; 10 min, trihydrate
  Amoxicillin released in solution Mean: 99.14%
  Amoxicillin released in solution #1: 98.65%
  Amoxicillin released in solution #2: 99.04%
  Amoxicillin released in solution #3: 99.73%
[2]; 15 min, trihydrate
  Amoxicillin released in solution Mean: 99.12%
  Amoxicillin released in solution #1: 99.28%
  Amoxicillin released in solution #2: 98.69%
  Amoxicillin released in solution #3: 99.38%
[2]; 30 min, trihydrate
  Amoxicillin released in solution Mean: 99.31%
  Amoxicillin released in solution #1: 99.50%
  Amoxicillin released in solution #2: 99.56%
  Amoxicillin released in solution #3: 98.87%
[2]; 60 min, trihydrate
  Amoxicillin released in solution Mean: 99.25%
  Amoxicillin released in solution #1: 99.56%
  Amoxicillin released in solution #2: 99.10%
  Amoxicillin released in solution #3: 99.10%
[2]; 90 min, trihydrate
  Amoxicillin released in solution Mean: 99.76%
  Amoxicillin released in solution #1: 99.93%
  Amoxicillin released in solution #2: 99.61%
  Amoxicillin released in solution #3: 99.74%
[3]
  Average Particle Size D10: 12.3 μm
  Average Particle Size D50: 39.8 μm
  Average Particle Size D90: 93.3 μm
  Average Particle Size D100: 275.9 μm
[4]
  Surface Area Mean ± SD (n = 3): 0.58 ± 0.09 m^2 · g^−1

## CC1(C)S[C@@H]2[C@H](NC(=O)[C@H](N)c3ccc(O)cc3)C(=O)N2[C@H]1C(=O)O.O.O.O [entry 2, amoxicillin trihydrate]
[1]
  Contact Angle Mean ± SD (n = 4): 67.70 ± 1.39
[2]; 0 min
  Amoxicillin released in solution Mean: 0%
  Amoxicillin released in solution #1: 0%
  Amoxicillin released in solution #2: 0%
  Amoxicillin released in solution #3: 0%
[2]; 1 min, trihydrate
  Amoxicillin released in solution Mean: 61.71%
  Amoxicillin released in solution #1: 61.68%
  Amoxicillin released in solution #2: 61.21%
  Amoxicillin released in solution #3: 62.23%
[2]; 3 min, trihydrate
  Amoxicillin released in solution Mean: 99.69%
  Amoxicillin released in solution #1: 99.58%
  Amoxicillin released in solution #2: 99.88%
  Amoxicillin released in solution #3: 99.60%
[2]; 5 min, trihydrate
  Amoxicillin released in solution Mean: 98.99%
  Amoxicillin released in solution #1: 99.89%
  Amoxicillin released in solution #2: 99.79%
  Amoxicillin released in solution #3: 97.29%
[2]; 10 min, trihydrate
  Amoxicillin released in solution Mean: 99.66%
  Amoxicillin released in solution #1: 99.66%
  Amoxicillin released in solution #2: 98.95%
  Amoxicillin released in solution #3: 100.36%
[2]; 15 min, trihydrate
  Amoxicillin released in solution Mean: 99.43%
  Amoxicillin released in solution #1: 99.51%
  Amoxicillin released in solution #2: 98.98%
  Amoxicillin released in solution #3: 99.80%
[2]; 30 min, trihydrate
  Amoxicillin released in solution Mean: 99.33%
  Amoxicillin released in solution #1: 99.65%
  Amoxicillin released in solution #2: 99.00%
  Amoxicillin released in solution #3: 99.34%
[2]; 60 min, trihydrate
  Amoxicillin released in solution Mean: 99.45%
  Amoxicillin released in solution #1: 99.56%
  Amoxicillin released in solution #2: 99.17%
  Amoxicillin released in solution #3: 99.60%
[2]; 90 min, trihydrate
  Amoxicillin released in solution Mean: 99.15%
  Amoxicillin released in solution #1: 99.24%
  Amoxicillin released in solution #2: 99.24%
  Amoxicillin released in solution #3: 98.96%
[3]
  Average Particle Size D10: 13.5 μm
  Average Particle Size D50: 40.6 μm
  Average Particle Size D90: 94.3 μm
  Average Particle Size D100: 237.5 μm
[4]
  Surface Area Mean ± SD (n = 3): 0.69 ± 0.03 m^2 · g^−1

Reference: patent publication US9820943B2, “Micronized amoxicillin” (DSM SINOCHEM PHARMACEUTICALS NETHERLANDS B.V., priority 2013, dated 2017)
